The test system of test [1] is Mexican bean beetle (Epilachna varivestis, Muls.). Briefly: Mexican Bean Beetle Leaf Spray Test. Set-up: key: A: excellent control; B: partial control; C: no control. The class given is in vivo. To be noted: 500 ppm, three days. As to the method: (§1) Suspensions of the test compounds were prepared by dissolving one gram of compound in 50 milliliters of acetone in which had been dissolved 0.1 gram (10 percent of the weight of compound) of an alkylphenoxy polyethoxyethanol surfactant, as an emulsifying or dispersing agent. The resulting solution was mixed into 150 milliliters of water to give roughly 200 milliliters of a suspension containing the compound in finely divided form. The thus-prepared stock suspension contained 0.5 percent by weight of compound. The test concentrations in parts per million by weight employed in the tests described hereinbelow were obtained by appropriate dilutions of the stock suspension with water. The test procedures were as follows:
Fourth instar larvae of the Mexican bean beetle (Epilachna varivestis, Muls.), reared on Tendergreen bean plants at a temperature of 80±5° F. and 50±5 percent relative humidity, were the test insects.
The test compounds were formulated by diluting the stock suspension with water to give a suspension containing 500 parts of test compound per million parts of final formulation. Potted Tendergreen bean plants of standard height and age were placed on a revolving turntable and sprayed with 100-110 milliliters of test compound formulation by use of a DeVilbiss spray gun set at 10 psig air pressure. The application, which lasted 25 seconds, was sufficient to wet plants to run-off. As a control, 100-110 milliliters of a water-acetone-emulsifier solution containing no test compound were also sprayed on infested plants. When dry, the paired leaves were separated and each was placed in a 9 centimeter Petri dish lined with moistened filter paper. Five randomly selected larvae were introduced into each dish, and the dishes were closed. The closed dishes were labeled and held at a temperature of 80±5° F. for three days. Although the larvae could easily consume the leaf within 24 to 48 hours, no more food was added. Larvae which were unable to move the length of the body, even upon stimulation, were considered dead.
In these tests the pesticidal activity of the compounds against aphid, mite, Southern Armyworm, Bean Beetle and house fly was rated as follows: […]

Test [2] deals with root-knot nematode (Meloidogyne incognita var. acrita). Nature of the test: Nematode Test. The class given is in vivo. Further details: key: 1: severe galling; equal to untreated control; 2: moderate galling; 3: light galling; 4: very light galling; 5: no galling. To be noted: 10 ml of 500 ppm formulation per jar (approx. 180 cc soil), cucumber indicator crop, approx. three weeks. As to the method: as §1
Infective migratory larvae of the root-knot nematode, (Meloidogyne incognita var. acrita) were reared in the greenhouse on roots of Rutgers variety tomato plant. Infected tomato plants were removed from the culture and the roots were chopped very finely. A small amount of inoculum from the roots was added to pint Mason jars containing approximately 180 cc of soil. The jars containing the inoculum and soil were capped and incubated for one week at room temperature. During this period eggs of the nematode hatched and the larvae forms migrated into the soil.
The test compounds were formulated by diluting the stock suspension with water to give a suspension containing 500 parts of test compound per million parts of final formulation. 10 milliliters of the test formulation was added to each of two jars for each dosage treated. As a control 10 milliliters of a water-acetone-emulsifier solution containing no test compound was also added to jars containing nematode larvae. The jars were capped and the contents thoroughly mixed on a kale mill for five minutes. The jars remained capped at room temperature for a period of 48 hours and the contents were then transferred to 3 inch pots. Subsequently, the pots were seeded to cucumber as an indicator crop and placed in the green house where they were cared for in the normal fashion for growing potted cucumber for approximately three weeks. These cucumber plants were then removed from the pots, the soil washed from the roots and the amount of galling visually rated.
The nematocidal toxicity has the following ratings;

Turning to `CN(SSN(C)C(=O)ON=C1CSCCS1)C(=O)ON=C1CSCCS1` [N,N'-Bis-[1,4-Dithiane-2-O-(N-methylcarbamoyl)oximino]disulfide], the “Mexican Bean Beetle control rating” value in test [1] is “A”. The “Root-Knot Nematode galling rating” value in test [2] is listed as 1.
As to `CC(=NOC(=O)N(C)SSN(C)C(=O)ON=C(C)SCCC#N)SCCC#N` [N,N'-Bis-[1-(2-Cyanoethylthio)acetaldehyde O-(N-methylcarbamoyl)oxime]disulfide], the “Mexican Bean Beetle control rating” value in test [1] is on record as “A”. Further, the “Root-Knot Nematode galling rating” value in test [2] turned out to be 4.
The corresponding values for `CSC(C)=NOC(=O)N(C)SSN(C)C(=O)ON=C(C)SC` [N,N'-Bis-[1-Methylthioacetaldehyde O-(N-methylcarbamoyl)oxime]disulfide] are “A” and 1.

(Values after patent publication US4413007A, “Pesticidal symmetrical N-substituted bis-carbamoyloximino disulfide compounds” (priority 1978, dated 1983).)
